Assay results reported in publication PMC5515969, “Effects of 31 FDA approved small-molecule kinase inhibitors on isolated rat liver mitochondria” (Archives of Toxicology, 2016).
Where two headings read alike, the source gives them in different places.

What was measured:
[1] = molecular target: T1, RCC II (Rattus norvegicus, UniProt P21913+Q641Z9+Q6PCT8+Q920L2); experiment: RCC II activity in submitochondrial particles; assay type: biochemical; design: key: activity relative to DMSO-treated controls (control set as 1 = 100%); conditions: relative to DMSO treated samples
T1 construct: Submitochondrial particles were prepared by subjecting the intact mitochondria to three successive freeze–thaw cycles; from tissue; host or cells: rat liver mitochondria, used as submitochondrial particles
T1 sequence (Q920L2 35-656): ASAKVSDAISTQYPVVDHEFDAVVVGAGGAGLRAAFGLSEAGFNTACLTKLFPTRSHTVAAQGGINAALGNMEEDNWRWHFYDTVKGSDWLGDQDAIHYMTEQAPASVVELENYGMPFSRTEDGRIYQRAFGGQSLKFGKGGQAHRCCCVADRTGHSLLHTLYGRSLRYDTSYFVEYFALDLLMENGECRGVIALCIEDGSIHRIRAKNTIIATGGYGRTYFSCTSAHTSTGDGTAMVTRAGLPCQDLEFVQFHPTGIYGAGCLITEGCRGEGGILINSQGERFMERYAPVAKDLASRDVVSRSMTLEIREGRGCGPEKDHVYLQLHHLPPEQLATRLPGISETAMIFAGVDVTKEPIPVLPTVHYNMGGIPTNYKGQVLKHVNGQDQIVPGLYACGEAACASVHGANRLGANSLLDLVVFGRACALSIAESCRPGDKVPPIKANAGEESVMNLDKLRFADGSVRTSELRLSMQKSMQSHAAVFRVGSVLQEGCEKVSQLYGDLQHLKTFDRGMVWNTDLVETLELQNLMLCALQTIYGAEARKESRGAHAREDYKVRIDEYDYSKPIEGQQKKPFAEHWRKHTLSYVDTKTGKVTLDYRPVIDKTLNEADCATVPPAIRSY
T1 sequence (P21913 31-282): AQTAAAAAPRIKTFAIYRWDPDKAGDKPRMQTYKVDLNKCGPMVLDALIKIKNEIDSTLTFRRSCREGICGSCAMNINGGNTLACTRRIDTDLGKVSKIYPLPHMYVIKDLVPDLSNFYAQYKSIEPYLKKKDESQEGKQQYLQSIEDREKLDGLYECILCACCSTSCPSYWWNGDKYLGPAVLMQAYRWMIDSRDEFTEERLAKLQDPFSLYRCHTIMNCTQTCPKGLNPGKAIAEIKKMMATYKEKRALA
T1 sequence (Q641Z9 1-169): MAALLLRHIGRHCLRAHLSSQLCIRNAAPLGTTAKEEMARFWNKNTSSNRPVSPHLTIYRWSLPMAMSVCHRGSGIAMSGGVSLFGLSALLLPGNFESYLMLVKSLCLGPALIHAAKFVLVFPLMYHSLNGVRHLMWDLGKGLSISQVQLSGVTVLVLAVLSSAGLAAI
T1 sequence (Q6PCT8 57-159): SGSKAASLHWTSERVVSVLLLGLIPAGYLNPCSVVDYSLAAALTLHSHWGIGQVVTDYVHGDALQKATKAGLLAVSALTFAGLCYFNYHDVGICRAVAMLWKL
Description: (§1) KIs were incubated with submitochondrial particles (1 mg/ml) for 15 min and then RCC I–V activities measured. […] The activities of DMSO-treated samples (controls) were set as 1. […] The difference between the activity from rotenone-containing buffer and rotenone-absent buffer was considered as RCC I activity. […] For measuring RCC I/V and II activity, the changes in absorbance at 340 and 600 nm, respectively, were determined every 1 min for 6 min. For measuring RCC III and RCC IV, the changes in absorbance at 550 nm were measured every 10 s for 2 min.

[2] = test system: RCC III; experiment: RCC III activity in submitochondrial particles; assay type: biochemical, rat; design: key to RCC III at 100XCmax: activity relative to DMSO-treated controls (control set as 1 = 100%); conditions: for RCC activity III: 15 min, DMSO-treated = 100; for RCC III at 100XCmax: relative to DMSO treated samples
Description: as §1

[3] = test system: RCC IV; experiment: RCC IV activity in submitochondrial particles; assay type: biochemical, rat; design: key to RCC IV at 50XCmax / RCC IV at 100XCmax: activity relative to DMSO-treated controls (control set as 1 = 100%); conditions: for RCC activity IV: 15 min, DMSO-treated = 100; for RCC IV at 50XCmax: relative to DMSO treated samples, in %
Description: as §1

[4] = test system: RCC V; experiment: RCC V activity in submitochondrial particles; assay type: biochemical, rat; conditions: for RCC V at 5XCmax / RCC V at 50XCmax: relative to DMSO treated samples; for RCC activity V: 15 min, DMSO-treated = 100; as to RCC V at 5XCmax: key: 0 indicates that the drug had no effects (negative)
Description: as §1

[5] = test system: isolated rat liver mitochondria; experiment: Mitochondrial inner membrane potential (MMP), Rhodamine 123; assay type: biochemical; conditions: difference in signal between KI and DMSO treated samples at the end of experiments
Excerpt: Fig. 3 KI effects on mitochondrial inner membrane potential (MMP). […] In a, c, data are means and standard derivations from three separate experiments. *p < 0.05 as compared to DMSO-treated samples at the end of experiments. In b, data are means of two independent experiments

[6] = test system: isolated rat liver mitochondria; experiment: Mitochondrial swelling (absorbance at 535 nm); assay type: biochemical; conditions: for Swelling 1XCmax / Swelling 2.5XCmax / Swelling 5XCmax / Swelling 10XCmax / Swelling 20XCmax / Swelling 30XCmax / Swelling 50XCmax / Swelling 100XCmax: difference in signal between KI and DMSO treated samples at the end of experiments; as to Swelling 5XCmax: key: 0 indicates that the drug had no effects (negative)
[7] = test system: isolated rat liver mitochondria; conditions: positive control alamethicin treated samples
[8] = design: method as in product labeling; conditions: ref product labeling, cited from earlier work
[9] = cited from earlier work
[10] = test system: isolated rat liver mitochondria; experiment: Mitochondrial ROS production (CM-H2DCFDA); conditions: for ROS measured by CM-H2DCFDA at 1XCmax / ROS measured by CM-H2DCFDA at 2.5XCmax / ROS measured by CM-H2DCFDA at 5XCmax / ROS measured by CM-H2DCFDA at 10XCmax / ROS measured by CM-H2DCFDA at 20XCmax / ROS measured by CM-H2DCFDA at 30XCmax / ROS measured by CM-H2DCFDA at 50XCmax / ROS measured by CM-H2DCFDA at 100XCmax: DMSO treated samples set as 1
[11] = test system: isolated rat liver mitochondria; experiment: Mitochondrial oxygen consumption (glutamate/malate or succinate driven, state 4 and state 3); assay type: biochemical; conditions: DMSO treated samples set as 1; as to State 3 respiration driven by succinate at 10XCmax: key: 0 indicates that the drug had no effects (negative); as to State 3 respiration driven by succinate at 1XCmax: key: 0 indicates that the drug had no effects (negative)
Description: Rats were anesthetized by an intraperitoneal injection of Nembutal and the liver perfused with PBS to remove the blood. The liver was then cut into small pieces and homogenized using a Dounce type homogenizer in the ice-cold isolation buffer (IB) containing 200 mM sucrose, 10 mM Tris-MOPS, 1 mM EGTA (pH 7.4). The sample was then centrifuged at 600g for 10 min. The supernatant was further centrifuged at 7500g for 10 min, and the pellets was washed once with the IB and centrifuged again at 7500g for 10 min to collect mitochondria. […] Before drug treatment, the protein concentration was adjusted to 1 mg/ml using appropriate buffer. […] Briefly, mitochondrial and cytosolic fractions from four different preparations using four rats were diluted using the Laemmli protein loading buffer and subject to SDS-PAGE with 4–20% gradient gels. The proteins were blotted to PVDF membranes and detected using antibodies against GAPDH, ATP5A, UQCRC2, SDHB, and NDUFB8.
The aliquoted stock solutions were kept for less than one month and each tube was used only once. The KIs were added to the mitochondria at 1:1000 dilutions. […] The Cmax data were from clinical trials which used FDA recommend dosages, route of administration, and duration. […] The final concentration of DMSO for drug treatment was always 0.1%, and control treatments were 0.1% DMSO.
Briefly, mitochondria were incubated with the KIs for 5 min, and then split evenly and loaded to the sample tubes of two Oxytherm systems (Hansatech Instruments Ltd), with one system used for measuring glutamate/malate driven respiration and the other succinate-driven respiration, both of which were defined as state 4 respiration. After 3 min, ADP was added to measure the maximal oxygen consumption rate, which was defined as state 3 respiration. […] The oxygen consumption rate of DMSO-treated samples (controls) was set as 1.

[12] = test system: RCC I; experiment: RCC I activity in submitochondrial particles; assay type: biochemical, rat; design: key to RCC I at 10XCmax / RCC I at 100XCmax / RCC I at 50XCmax / RCC I at 30XCmax / RCC I at 20XCmax: activity relative to DMSO-treated controls (control set as 1 = 100%); conditions: 10XCmax; relative to DMSO treated samples
Description: as §1

[13] = cited from earlier work; remark: listed apart in the source

Q: Which results are given for `C[C@@H](Oc1cc(-c2cnn(C3CCNCC3)c2)cnc1N)c1c(Cl)ccc(F)c1Cl` [Crizotinib]?
A: RCC II at 1.0XCmax [1]: 0; RCC II at 2.5XCmax [1]: 0; RCC II at 5XCmax [1]: 0; RCC II at 10XCmax [1]: 0; RCC II at 20XCmax [1]: 0; RCC II at 30XCmax [1]: 0; RCC II at 50XCmax [1]: 0; RCC II at 100XCmax [1]: 0; RCC activity III ([2]; 20-fold Cmax): 99.67 ± 8.65 % of control; RCC activity III ([2]; 30-fold Cmax): 106.26 ± 5.79 % of control; RCC activity III ([2]; 50-fold Cmax): 98.02 ± 7.16 % of control; RCC activity III ([2]; 100-fold Cmax): 103.28 ± 2.85 % of control; RCC III at 100XCmax [2]: 0; RCC activity IV ([3]; 20-fold Cmax): 94.03 ± 9.67 % of control; RCC activity IV ([3]; 30-fold Cmax): 96.65 ± 4.14 % of control; RCC activity IV ([3]; 50-fold Cmax): 103.77 ± 5.67 % of control; RCC IV at 50XCmax [3]: 0; RCC activity IV ([3]; 100-fold Cmax): 96.60 ± 8.40 % of control; RCC V at 5XCmax [4]: 0; RCC activity V ([4]; 20-fold Cmax): 95.77 ± 7.64 % of control; RCC activity V ([4]; 30-fold Cmax): 98.65 ± 2.98 % of control; RCC activity V ([4]; 50-fold Cmax): 91.95 ± 5.63 % of control; RCC V at 50XCmax [4]: 0; MMP measured by Rhodamine 123 at 1XCmax [5]: 0; MMP measured by Rhodamine 123 at 2.5XCmax [5]: 0; MMP measured by Rhodamine 123 at 5XCmax [5]: 0; MMP measured by Rhodamine 123 at 10XCmax [5]: 0; MMP measured by Rhodamine 123 at 20XCmax [5]: 0; MMP measured by Rhodamine 123 at 30XCmax [5]: 0; MMP measured by Rhodamine 123 at 50XCmax [5]: 0; MMP measured by Rhodamine 123 at 100XCmax [5]: 0; Swelling 1XCmax [6]: 0; Swelling 2.5XCmax [6]: 0; Swelling 5XCmax [6]: 0; Swelling 10XCmax [6]: 0; Swelling 20XCmax [6]: 0; Swelling 30XCmax [6]: 0; Swelling 50XCmax [6]: 0; Swelling 100XCmax [6]: 0.19±0.03; effect on mitochondrial swelling ([6]; up to 100-fold Cmax or highest testable concentration, 25 µM calcium chloride): significant mitochondrial swelling; Cytochrome c release 1XCmax [7]: 0; Cytochrome c release 2.5XCmax [7]: 0; Cytochrome c release 5XCmax [7]: 0; Cytochrome c release 10XCmax [7]: 0; Cytochrome c release 20XCmax [7]: 0; Cytochrome c release 30XCmax [7]: 0; Cytochrome c release 50XCmax [7]: 12.29±1.27 percentage of the positive control group; Cytochrome c release 100XCmax [7]: 24.66±1.67 percentage of the positive control group; Labeling for cardiotoxicity ([8]; BBW: black box warning, W&P: Warnings and Precautions): W&P: QT Interval Prolongation; Bradycardia; Potential for cardiotoxicity (based on labeling) [8]: 1; DILI potential (based on labeling) ([9]; 1 = DILI positive, 0 = negative, ref product labeling): 1; Labeling for DILI ([9]; BBW: black box warning, W&P: Warnings and Precautions, ref product labeling): W&P: fatal DILI; labeling for DILI ([9]; W&P warnings and precautions, BBW black box warnings, ref FDA product labeling): W&P: fatal DILI; DILI potential (based on labeling) ([9]; ref FDA product labeling): 1; ROS measured by CM-H2DCFDA at 1XCmax [10]: 0; ROS measured by CM-H2DCFDA at 2.5XCmax [10]: 0; ROS measured by CM-H2DCFDA at 5XCmax [10]: 0; ROS measured by CM-H2DCFDA at 10XCmax [10]: 0; ROS measured by CM-H2DCFDA at 20XCmax [10]: 1.46±0.08; ROS measured by CM-H2DCFDA at 30XCmax [10]: 1.75±0.32; ROS measured by CM-H2DCFDA at 50XCmax [10]: 2.06±0.27; ROS measured by CM-H2DCFDA at 100XCmax [10]: 2.74±0.18; effect on ROS production ([10]; highest tested concentrations): significantly ROS production

Q: Which results are given for `COc1cc2ncnc(Nc3ccc(F)c(Cl)c3)c2cc1OCCCN1CCOCC1` [Gefitinib]?
A: State 3 respiration driven by succinate at 1XCmax ([11]; 1XCmax): 0; State 4 respiration driven by succinate at 1XCmax ([11]; 1XCmax): 0; State 3 respiration driven by succinate at 2.5XCmax ([11]; 2.5XCmax): 0; State 4 respiration driven by succinate at 2.5XCmax ([11]; 2.5XCmax): 0; State 3 respiration driven by succinate at 5XCmax ([11]; 5XCmax): 0; State 4 respiration driven by succinate at 5XCmax ([11]; 5XCmax): 0; State 3 respiration driven by succinate at 10XCmax ([11]; 10XCmax): 0; State 4 respiration driven by succinate at 10XCmax ([11]; 10XCmax): 0; State 3 respiration driven by succinate at 20XCmax ([11]; 20XCmax): 0; State 4 respiration driven by succinate at 20XCmax ([11]; 20XCmax): 0; State 3 respiration driven by succinate at 30XCmax ([11]; 30XCmax): 0; State 4 respiration driven by succinate at 30XCmax ([11]; 30XCmax): 0; State 3 respiration driven by succinate at 50XCmax ([11]; 50XCmax): 0; State 4 respiration driven by succinate at 50XCmax ([11]; 50XCmax): 0; State 3 respiration driven by succinate at 100XCmax ([11]; 100XCmax): 0; State 4 respiration driven by succinate at 100XCmax ([11]; 100XCmax): 0; RCC I at 10XCmax [12]: 0; RCC II at 1.0XCmax [1]: 0; RCC II at 2.5XCmax [1]: 0; RCC II at 5XCmax [1]: 0; RCC II at 10XCmax [1]: 0; RCC II at 20XCmax [1]: 0; RCC II at 30XCmax [1]: 0; RCC II at 50XCmax [1]: 0; RCC II at 100XCmax [1]: 0; RCC III at 100XCmax [2]: 0; RCC IV at 50XCmax [3]: 0; RCC V at 5XCmax [4]: 0; RCC V at 50XCmax [4]: 0; MMP measured by Rhodamine 123 at 1XCmax [5]: 0; MMP measured by Rhodamine 123 at 2.5XCmax [5]: 0; MMP measured by Rhodamine 123 at 5XCmax [5]: 0; MMP measured by Rhodamine 123 at 10XCmax [5]: 0; MMP measured by Rhodamine 123 at 20XCmax [5]: 0; MMP measured by Rhodamine 123 at 30XCmax [5]: 0; MMP measured by Rhodamine 123 at 50XCmax [5]: 0; MMP measured by Rhodamine 123 at 100XCmax [5]: 0; Swelling 1XCmax [6]: 0; Swelling 2.5XCmax [6]: 0; Swelling 5XCmax [6]: 0; Swelling 10XCmax [6]: 0; Swelling 20XCmax [6]: 0; Swelling 30XCmax [6]: 0; Swelling 50XCmax [6]: 0; Swelling 100XCmax [6]: 0; Cytochrome c release 1XCmax [7]: 0; Cytochrome c release 2.5XCmax [7]: 0; Cytochrome c release 5XCmax [7]: 0; Cytochrome c release 10XCmax [7]: 0; Cytochrome c release 20XCmax [7]: 0; Cytochrome c release 30XCmax [7]: 0; Cytochrome c release 50XCmax [7]: 0; Cytochrome c release 100XCmax [7]: 0; Potential for cardiotoxicity (based on labeling) [8]: 0; Cmax ([13]; human therapeutic Cmax at FDA recommended dosages, ref product labeling and drug approval packages at the official FDA website): 0.27 µM; Cmax ([13]; read-out: Cmax at µM, therapeutic maximal blood concentration, ref product labeling): 0.27 µM; Cmax ([13]; therapeutic maximal blood concentration, ref product labeling): 122 ng/mL; ROS measured by CM-H2DCFDA at 1XCmax [10]: 0; ROS measured by CM-H2DCFDA at 2.5XCmax [10]: 0; ROS measured by CM-H2DCFDA at 5XCmax [10]: 0; ROS measured by CM-H2DCFDA at 10XCmax [10]: 0; ROS measured by CM-H2DCFDA at 20XCmax [10]: 0; ROS measured by CM-H2DCFDA at 30XCmax [10]: 0; ROS measured by CM-H2DCFDA at 50XCmax [10]: 0; ROS measured by CM-H2DCFDA at 100XCmax [10]: 0
